Measurements from publication PMC10363981, “Optimizing the enzymatic release of MMAE from isoDGR-based small molecule drug conjugate by incorporation of a GPLG-PABC enzymatically cleavable linker” (Frontiers in Pharmacology, 2023).

Assays:
SK-OV-3 cells = assay: In vitro antiproliferative activity in the presence of MMP-2 inhibitor; type: cell-based, human; settings: 16 h pre-incubation with MMP-2 inhibitor 10 µM, then 72 h continuous treatment, 5% serum final; average ± SD, triplicate; read-out: IC50 MMP-2 inhibitor + Treatment 72 h SK-OV-3 (αVβ3 +)
Method: (§1) For the evaluation of the in vitro antiproliferative activity of compounds, the cell viability was determined by MTT assay (3-(4,5-dimethylthiazol-2-yl)-2,5-diphenyl-tetrazolium bromide) obtained from Duchefa Biochemie (Haarlem, Netherlands).
(§2) 22 µL of MTT solution (5 mg/mL in PBS, 0.5 mg/mL final) was added to each well and after 2 h incubation at 37°C, the supernatant was removed. The precipitated purple formazan crystals were dissolved in 100 µL of a 1:1 solution of dimethylsulfoxide (DMSO; Merck, St. Louis, MO, United States): 96% Ethanol (Molar Chemicals Kft., Halásztelek, Hungary) and the absorbance was measured after 15 min at λ = 570 nm by using microplate reader CLARIOstar Plus (BMG Labtech, Ortenberg, Germany). Average background absorbance (DMSO-Ethanol) was subtracted from absorbance values of control and treated wells, and cell viability was determined relative to untreated (control) wells where cell viability was arbitrarily set to 100%. Absorbance values of treated samples were normalized versus untreated control samples and interpolated by nonlinear regression analysis with GraphPad Prism 6 software (GraphPad, La Jolla, San Diego, CA, United States) to generate sigmoidal dose-response curves from which the 50% inhibitory concentration (IC50) values of the compounds were calculated and presented as nanomolar (nM) units. The experiments were done in triplicate and each experiment was repeated three times.
(§3) The conjugate 2 and the free MMAE were tested in presence of the MMP-2 inhibitor cis-9-octadecenoyl-N-hydroxylamine (Merck) dissolved in DMSO ([You et al., 2018]). The three αVβ3 integrin and MMP-2 overexpressing cancer cell lines (U87MG, SK-MEL-28, […]) were seeded with serum containing medium ([Ellijimi et al., 2018]; [Shim et al., 2019]) and, after 8 h, were washed-out. Then, 100 µL per well of MMP-2 inhibitor (10 µM final concentration) were added and cells were incubated for 16 h, prior to the treatment. Later, the conjugate 2 and free MMAE were dissolved in 10% serum containing medium and added to reach the same concentrations evaluated in the previous test in a final volume of 100 µL per well and incubated (5% serum final) continuously for 72 h of the treatment. The experiments were performed in triplicate.

SK-MEL-28 cells = assay: as above; type: cell-based, human; settings: 16 h pre-incubation with MMP-2 inhibitor 10 µM, then 72 h continuous treatment, 5% serum final; average ± SD, triplicate; read-out: IC50 MMP-2 inhibitor + Treatment 72 h SK-MEL-28 (αVβ3 +)
Method: as §1, §2, §3

U87MG cells = assay: as above; type: cell-based, human; settings: 16 h pre-incubation with MMP-2 inhibitor 10 µM, then 72 h continuous treatment, 5% serum final; average ± SD, triplicate; read-out: IC50 MMP-2 inhibitor + Treatment 72 h U87MG (αVβ3 +)
Method: as §1, §2, §3

[1] = tested on: U87MG human malignant glioma cells; assay: In vitro antiproliferative activity, MTT, 72 h continuous treatment (no-washout); type: cell-based
Method: (§4) U87MG human malignant glioma, SK-MEL-28 human melanoma, SK-OV-3 human ovarian cancer, and A549 human lung cancer cell lines were purchased from ATCC. The cells were cultured in Dulbecco’s Modified Eagle’s Medium (DMEM; Biosera, Nuaille, France), supplemented with 10% heat-inactivated Fetal Bovine Serum (FBS; Biosera), and with 1% Penicillin/Streptomycin (Biosera). Cells were cultured in sterile T75 flasks with ventilation cap (Sarstedt, Nümbrecht, Germany) at 37 °C in a humidified atmosphere with 5% CO2 in ESCO CelCulture Incubator (ESCO, Friedberg, Germany). Manipulations with the cells were performed in biosafety cabinet (laminar) ESCO Sentinel Gold class II model AC2-4E8 (ESCO).
(§5) After standard trypsinization and harvesting cells by trypsin (Biosera), ethylenediaminetetraacetic acid (EDTA; Biosera) and PBS solution, 6×10^3 cells per well were seeded in serum containing (10%) growth medium to 96-well plates with flat bottom (Eppendorf, Hamburg, Germany), in a 100 μL volume per well, and incubated at 37°C.
(§6) […] The control wells were treated only with serum free medium (5% serum final).
as §1
(§7) 22 µL of MTT solution (5 mg/mL in PBS, 0.5 mg/mL final) was added to each well and after 2 h incubation at 37°C, the supernatant was removed. […] Average background absorbance (DMSO-Ethanol) was subtracted from absorbance values of control and treated wells, and cell viability was determined relative to untreated (control) wells where cell viability was arbitrarily set to 100%. […] The experiments were done in triplicate and each experiment was repeated three times.

[2] = tested on: SK-MEL-28 human melanoma cells; assay: as above; type: cell-based
Method: as §4, §5, §6, §1, §7

[3] = tested on: SK-OV-3 human ovarian cancer cells; assay: In vitro antiproliferative activity, "kiss-and-run" washout experiment (30 min + washout + up to 72 h); type: cell-based
Method: as §4, §5
(§8) In the wash out experiment, cells were incubated with the compounds (5% serum final) for 30 min, then they were washed out, and additionally incubated in growth medium (5% serum final) up to 72 h. The control wells were treated only with serum free medium (5% serum final).
as §1, §7
(§9) Recently, a new protocol for evaluating the antiproliferative activity and the targeting ability of integrin-ligand based conjugates was developed by the group of Prof. […] In this procedure, which we named “kiss-and-run” experiment, after very short initial contact times (15–30 min) of the toxin with the cells in vitro, the solution is drained, and cells are resuspended in the culture medium for a 72 h incubation. This protocol is aimed at simulating the rapid clearance of the drugs that occurs in vivo in the extracellular tumor environment, thus highlighting the ability of the conjugate to bind the integrin receptor on the cell surface.

[4] = tested on: A549 human lung cancer cells; assay: as above; type: cell-based
Method: as §4, §5, §8, §1, §7, §9

[5] = tested on: U87MG human malignant glioma cells; assay: as above; type: cell-based
Method: as §4, §5, §8, §1, §7, §9

[6] = tested on: SK-MEL-28 human melanoma cells; assay: as above; type: cell-based
Method: as §4, §5, §8, §1, §7, §9

[7] = tested on: SK-OV-3 human ovarian cancer cells; assay: In vitro antiproliferative activity, MTT, 72 h continuous treatment (no-washout); type: cell-based
Method: as §4, §5, §8, §1, §7

[8] = tested on: A549 human lung cancer cells; assay: as above; type: cell-based
Method: as §4, §5, §8, §1, §7

[9] = MTT, 72 h continuous treatment, no washout, 5% serum final, triplicate, repeated three times
[10] = relative potency = ratio of IC50 of 2 vs MMAE, 72 h no washout
[11] = MTT, 30 min treatment, washout, further incubation up to 72 h, 5% serum final
[12] = ratio of IC50 of 2 vs MMAE, 30 min + washout + up to 72 h

CC[C@H](C)[C@@H]([C@@H](CC(=O)N1CCC[C@H]1[C@H](OC)[C@@H](C)C(=O)N[C@H](C)[C@@H](O)c1ccccc1)OC)N(C)C(=O)[C@@H](NC(=O)[C@H](C(C)C)N(C)C(=O)OCc1ccc(NC(=O)CNC(=O)[C@H](CC(C)C)NC(=O)[C@@H]2CCCN2C(=O)CNC(=O)CCc2cn(CCOCCOCCOCCOCC(=O)NCc3ccc(CN4C(=O)[C@H]5CC(=O)N[C@H](C(=O)O)CC(=O)NCC(=O)N[C@@H](CCCNC(=N)N)C(=O)NC[C@H]4C(=O)N5)cc3)nn2)cc1)C(C)C [compound 2, cyclo[DKP-isoDGR]-PEG4-GPLG-PABC-MMAE]
IC50 (SK-OV-3 cells): 3.2 nM | IC50 (SK-MEL-28 cells): 28.7 nM | IC50 (U87MG cells): 7.4 nM | IC50 [1, 9]: 7.5 ± 0.9 nM | RP [SMDC (2)/MMAE] U87MG [1, 10]: 33.30 | IC50 [2, 9]: 70.4 ± 7.1 nM | RP [SMDC (2)/MMAE] SK-MEL-28 [2, 10]: 29.49 | IC50 [3, 11]: 198 ± 13.7 nM | RP [SMDC (2)/MMAE] SK-OV-3 [3, 12]: 0.97 | IC50 ([4]; MTT, 30 min treatment, washout, further incubation up to 72 h, 5% serum final, αVβ3 low expressing line): 1240 ± 85.2 nM | RP [SMDC (2)/MMAE] A549 [4, 12]: 4.67 | IC50 [5, 11]: 683 ± 37.1 nM | RP [SMDC (2)/MMAE] U87MG [5, 12]: 0.32 | IC50 [6, 11]: 938 ± 112 nM | RP [SMDC (2)/MMAE] SK-MEL-28 [6, 12]: 0.67 | IC50 [7, 9]: 3.7 ± 0.3 nM | RP [SMDC (2)/MMAE] SK-OV-3 [7, 10]: 120.52 | IC50 ([8]; MTT, 72 h continuous treatment, no washout, 5% serum final, αVβ3 low expressing line, triplicate, repeated three times): 20.8 ± 1.8 nM | RP [SMDC (2)/MMAE] A549 [8, 10]: 302.32
